The text below walks through data of patent US11241440B2, “Dihydrooxadiazine compounds for treating infections and cancer” (VALORALIA I MÁS D, SL, priority 2016, dated 2022).

The experiment has as its system M. chelonae. Put plainly: Kirby-Bauer disk diffusion susceptibility test. The experiment is classed as cell-based. The following applies: M. chelonae strain 870, isolation year 2011. On the technique in general: A growth-free zone around the sample is the usual read-out of agar diffusion tests.

On to Penicillin, for which the “Characteristics of strains: susceptibility or resistance” value is given as “R”.
